Values quoted from earlier work in patent publication US20120171125A1, “Methods for Enhancing the Cognitive Function” (UCB PHARMA, S.A., priority 2009, published 2012).

How the values were obtained:
cognitive function = conditions: animals and humans
SV2A = SV2A (Homo sapiens, UniProt Q7L0J3)
epilepsy = conditions: in vivo

Sequence of SV2A (Q7L0J3 whole entry, species assumed): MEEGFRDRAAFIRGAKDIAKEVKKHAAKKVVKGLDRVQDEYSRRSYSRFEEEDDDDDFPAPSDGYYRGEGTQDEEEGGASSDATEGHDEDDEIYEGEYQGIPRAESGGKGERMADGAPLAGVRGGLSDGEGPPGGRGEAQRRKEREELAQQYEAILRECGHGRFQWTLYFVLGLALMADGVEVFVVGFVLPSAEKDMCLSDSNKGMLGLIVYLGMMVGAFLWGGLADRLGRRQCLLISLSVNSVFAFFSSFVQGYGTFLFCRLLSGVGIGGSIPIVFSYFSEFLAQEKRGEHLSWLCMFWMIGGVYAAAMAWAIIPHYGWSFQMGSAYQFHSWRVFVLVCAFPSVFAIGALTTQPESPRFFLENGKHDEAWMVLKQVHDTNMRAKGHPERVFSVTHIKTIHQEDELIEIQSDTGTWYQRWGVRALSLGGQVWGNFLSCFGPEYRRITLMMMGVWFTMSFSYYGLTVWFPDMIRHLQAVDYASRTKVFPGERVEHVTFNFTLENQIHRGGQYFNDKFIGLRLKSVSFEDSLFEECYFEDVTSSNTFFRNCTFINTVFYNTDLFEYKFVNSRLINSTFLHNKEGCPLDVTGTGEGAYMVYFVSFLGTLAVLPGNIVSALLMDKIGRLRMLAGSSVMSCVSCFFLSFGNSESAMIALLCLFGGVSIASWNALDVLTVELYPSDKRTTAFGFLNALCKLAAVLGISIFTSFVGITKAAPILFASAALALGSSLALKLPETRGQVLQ

Compound	impact on the cognitive function (cognitive function)	affinity / binding to SV2A (SV2A)	antiepileptic activity (epilepsy)
CC[C@@H](C(N)=O)N1CCCC1=O [levetiracetam, (S)-(−)-alpha-ethyl-2-oxo-1-pyrrolidine acetamide]	no impact on the cognitive function		
CCC[C@@H]1CC(=O)N([C@@H](CC)C(N)=O)C1 [brivaracetam, (2S)-2-[(4R)-2-oxo-4-propyl-pyrrolidin-1-yl]butanamide]		potent affinity to SV2A	very potent antiepileptic activities
NC(=O)CN1CCCC1=O [piracetam]		does not bind to SV2A	
CC[C@@H](C(N)=O)N1C[C@H](C=C(F)F)CC1=O [Seletracetam, (2S)-2-[(4S)-4-(2,2-difluorovinyl)-2-oxo-pyrrolidinyl]butanamide]		potent affinity to SV2A	very potent antiepileptic activities
CC[C@H](C(N)=O)N1CCCC1=O [(R)-(+)-alpha-ethyl-2-oxo-1-pyrrolidine acetamide]			completely lacks activity
